Where two headings read alike, the source gives them in different places.
What was measured:
PIM-1 = molecular target: T1, PIM-1 (Homo sapiens, UniProt P11309); assay: PIM-1 biochemical assay (ADP Hunter); settings: PIM1
T1 construct: histidine tag (C); made in house
From the text: The biochemical assay to measure PIM-1 activity relies on the ADP Hunter assay kit (DiscoveRx Corp., Cat. #90-0077), that determines the amount of ADP as direct product of the kinase enzyme activity.
The enzyme has been expressed and purified in-house as a recombinant human protein with a C-terminal histidine tag. The protein is active and stable.
Assay conditions were as indicated by the kit manufacturers with the following adaptations for the kinase activity step: • Kinase assay buffer and assay volume stay as recommended (15 mM HEPES, pH 7.4, 20 mM NaCl, 1 mM EGTA, 0.02% Tween 20, 10 mM MgCl2 and 0.1 mg/ml bovine γ-globulins/75 μl assay volume) • Incubation time and temperature: 60 min at 30° C. • PIM-1 concentration: 50 pg/μl • ATP concentration: 100 μM • PIM-1 substrate peptide: PIMtide ([…]) (SEQIDNO. 1) • Peptide concentration: 60 μM • Positive control for kinase activity inhibition: 1-10 μM Staurosporine • DMSO concentration have to stay below 2% during the kinase reaction
Assays were performed in either 96 or 384-well plates. The final outcome of the coupled reactions provided by the kit is the release of the fluorescent product Resorufin and has been measured with a multilabel HTS counter VICTOR V (PerkinElmer) using an excitation filter at 544 nm and an emission filter at 580 nm.

PI3K (p110α/p85α) = molecular target: T2, PI3K (p110α/p85α) (Homo sapiens, UniProt P42336); assay: PI3K activity assay (ADP Hunter Plus); assay type: biochemical
T2 construct: purchased Carna Biosciences 07CBS-0402A
T2 sequence (P42336 whole entry): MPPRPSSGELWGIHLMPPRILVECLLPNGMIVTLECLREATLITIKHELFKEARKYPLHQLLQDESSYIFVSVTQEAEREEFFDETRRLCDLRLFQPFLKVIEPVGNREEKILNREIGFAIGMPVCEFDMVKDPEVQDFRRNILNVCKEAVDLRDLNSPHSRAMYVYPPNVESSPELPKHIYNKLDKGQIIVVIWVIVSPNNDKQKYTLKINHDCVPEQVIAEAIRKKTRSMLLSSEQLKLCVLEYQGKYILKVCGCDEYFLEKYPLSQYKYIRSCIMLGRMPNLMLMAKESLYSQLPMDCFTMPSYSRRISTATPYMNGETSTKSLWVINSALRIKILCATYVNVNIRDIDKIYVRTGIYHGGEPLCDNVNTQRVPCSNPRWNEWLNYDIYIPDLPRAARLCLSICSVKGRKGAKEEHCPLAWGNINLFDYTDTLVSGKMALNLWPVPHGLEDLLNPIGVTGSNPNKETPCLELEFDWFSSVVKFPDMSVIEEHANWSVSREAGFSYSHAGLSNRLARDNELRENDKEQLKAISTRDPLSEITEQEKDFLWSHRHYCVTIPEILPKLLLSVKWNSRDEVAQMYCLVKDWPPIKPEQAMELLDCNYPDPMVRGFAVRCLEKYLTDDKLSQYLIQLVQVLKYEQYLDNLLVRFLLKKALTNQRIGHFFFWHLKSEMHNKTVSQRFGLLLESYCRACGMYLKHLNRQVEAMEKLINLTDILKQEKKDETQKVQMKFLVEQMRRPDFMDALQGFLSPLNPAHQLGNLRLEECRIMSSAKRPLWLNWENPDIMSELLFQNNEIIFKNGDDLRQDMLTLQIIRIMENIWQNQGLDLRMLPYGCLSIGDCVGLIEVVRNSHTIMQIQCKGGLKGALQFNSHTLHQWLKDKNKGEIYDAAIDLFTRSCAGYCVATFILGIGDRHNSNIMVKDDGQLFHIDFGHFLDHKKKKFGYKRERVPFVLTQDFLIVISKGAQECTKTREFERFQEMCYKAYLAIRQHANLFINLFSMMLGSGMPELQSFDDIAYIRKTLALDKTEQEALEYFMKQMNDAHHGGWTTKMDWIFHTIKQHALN
T2 sequence (P27986 whole entry partner): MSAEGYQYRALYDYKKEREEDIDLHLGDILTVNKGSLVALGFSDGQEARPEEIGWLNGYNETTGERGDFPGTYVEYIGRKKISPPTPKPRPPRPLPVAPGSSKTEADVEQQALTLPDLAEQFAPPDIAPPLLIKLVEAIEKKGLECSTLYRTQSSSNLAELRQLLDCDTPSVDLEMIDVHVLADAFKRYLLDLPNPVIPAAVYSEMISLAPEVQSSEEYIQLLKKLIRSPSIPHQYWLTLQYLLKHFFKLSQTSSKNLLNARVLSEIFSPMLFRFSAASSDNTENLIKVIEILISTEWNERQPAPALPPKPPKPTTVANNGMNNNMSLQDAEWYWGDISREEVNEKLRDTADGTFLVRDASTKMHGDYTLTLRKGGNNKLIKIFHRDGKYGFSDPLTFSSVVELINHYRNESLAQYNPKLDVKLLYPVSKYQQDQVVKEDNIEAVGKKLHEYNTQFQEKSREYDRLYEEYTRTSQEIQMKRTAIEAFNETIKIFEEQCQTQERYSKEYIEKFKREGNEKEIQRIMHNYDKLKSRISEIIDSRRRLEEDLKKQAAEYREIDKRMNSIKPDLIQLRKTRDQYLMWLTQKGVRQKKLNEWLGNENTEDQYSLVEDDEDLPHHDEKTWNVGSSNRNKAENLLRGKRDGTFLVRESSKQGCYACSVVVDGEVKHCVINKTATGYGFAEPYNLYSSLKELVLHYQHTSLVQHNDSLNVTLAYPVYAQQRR
Protocol: The kinase activity was measured by using the commercial ADP Hunter™ Plus assay available from DiscoveRx (#33-016), which is a homogeneous assay to measure the accumulation of ADP, a universal product of kinase activity. […] Reaction was carried out for 1 hour at 25° C. Reagent A and B were sequentially added to the wells and plates were incubated for 30 min at 37° C. Fluorescence counts were read in a Victor instrument (Perkin Elmer) with the recommended settings (544 and 580 nm as excitation and emission wavelengths, respectively). Values were normalized against the control activity included for each enzyme (i.e., 100% PI3 kinase activity, without compound). These values were plotted against the inhibitor concentration and were fit to a sigmoid dose-response curve by using the Graphad software.

mTOR = molecular target: T3, mTOR (Homo sapiens, UniProt P42345); assay: mTOR assay (LanthaScreen kinase activity assay); assay type: biochemical
T3 construct: purchased Invitrogen PV4754
T3 sequence (P42345 1360-2549 limits assumed): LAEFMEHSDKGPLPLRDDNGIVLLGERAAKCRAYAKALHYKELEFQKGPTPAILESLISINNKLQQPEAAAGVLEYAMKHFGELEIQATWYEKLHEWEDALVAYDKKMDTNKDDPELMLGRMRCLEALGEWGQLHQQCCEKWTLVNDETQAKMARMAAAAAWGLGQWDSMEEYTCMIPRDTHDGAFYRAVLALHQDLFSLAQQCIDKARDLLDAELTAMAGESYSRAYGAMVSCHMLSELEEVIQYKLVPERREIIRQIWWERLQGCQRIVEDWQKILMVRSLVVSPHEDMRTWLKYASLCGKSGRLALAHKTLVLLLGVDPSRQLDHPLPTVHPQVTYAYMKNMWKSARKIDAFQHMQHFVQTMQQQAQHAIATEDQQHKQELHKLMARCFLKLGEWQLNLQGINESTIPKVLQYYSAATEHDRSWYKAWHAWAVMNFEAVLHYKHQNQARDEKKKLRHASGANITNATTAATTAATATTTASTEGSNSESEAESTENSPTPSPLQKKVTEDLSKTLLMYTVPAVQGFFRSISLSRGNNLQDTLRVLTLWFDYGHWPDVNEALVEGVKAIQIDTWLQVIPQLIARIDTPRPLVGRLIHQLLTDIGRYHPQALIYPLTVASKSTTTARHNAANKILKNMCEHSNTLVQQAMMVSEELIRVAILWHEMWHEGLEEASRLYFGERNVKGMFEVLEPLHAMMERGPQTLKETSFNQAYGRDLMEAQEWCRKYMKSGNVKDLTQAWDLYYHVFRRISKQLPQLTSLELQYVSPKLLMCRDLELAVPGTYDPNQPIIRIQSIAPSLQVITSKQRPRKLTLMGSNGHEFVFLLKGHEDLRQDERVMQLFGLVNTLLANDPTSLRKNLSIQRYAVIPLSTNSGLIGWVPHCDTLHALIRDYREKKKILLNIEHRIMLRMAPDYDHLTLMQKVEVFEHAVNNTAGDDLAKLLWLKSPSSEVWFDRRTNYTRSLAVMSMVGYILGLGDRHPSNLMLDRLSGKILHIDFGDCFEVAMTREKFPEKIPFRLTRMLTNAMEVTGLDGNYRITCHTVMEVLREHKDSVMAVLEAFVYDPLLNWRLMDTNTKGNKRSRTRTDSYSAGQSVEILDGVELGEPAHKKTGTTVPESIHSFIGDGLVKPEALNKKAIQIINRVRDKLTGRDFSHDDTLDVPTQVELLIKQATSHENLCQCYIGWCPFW
Protocol: The enzymatic mTOR activity was measured using a LanthaScreen™ kinase activity assay (Invitrogen). The enzyme was purchased from Invitrogen (PV4754), as well as the GFP-labeled substrate (4EBP1-GFP; PV4759) and the Tb-anti-p4EBP1(pThr46) antibody (PV4757). The assay was performed in 50 mM HEPES buffer, pH 7.5, containing 1.5 mM MnCl2, 10 mM MgCl2, 1 mM EGTA, 2.5 mM DTT and 0.01% Tween-20. The concentration of the assay components were the following: 0.24 nM mTOR kinase, 400 nM 4EBP1-GFP, […] and serial dilutions of the compound (inhibitor) to be evaluated. After 1 h incubation at room temperature, 20 mM EDTA was used to stop the reaction and terbium-labeled antibody (4 nM) added to detect phosphorylated product. The antibody associates with the phosphorylated product resulting in an increased TR-FRET value. The TR-FRET value (a dimensionless number) was calculated as the ratio of the acceptor signal (GFP, emission at 520 nm) to the donor signal (terbium, emission at 495 nm). Values were plotted against the inhibitor concentration and fitted to a sigmoid dose-response curve using GraphPad software.

[1] = read-out: PIM-1 activity, IC50 (semi-quantitative class)
[2] = read-out: PI3K alpha activity, IC50 (semi-quantitative class)
[3] = read-out: PI3K alpha actual IC50 (in parentheses)
[4] = read-out: mTOR activity, IC50 (semi-quantitative class)
[5] = read-out: mTOR actual IC50 (in parentheses)
[6] = read-out: PIM-1 actual IC50 (in parentheses)

T1 sequence (P11309 whole entry): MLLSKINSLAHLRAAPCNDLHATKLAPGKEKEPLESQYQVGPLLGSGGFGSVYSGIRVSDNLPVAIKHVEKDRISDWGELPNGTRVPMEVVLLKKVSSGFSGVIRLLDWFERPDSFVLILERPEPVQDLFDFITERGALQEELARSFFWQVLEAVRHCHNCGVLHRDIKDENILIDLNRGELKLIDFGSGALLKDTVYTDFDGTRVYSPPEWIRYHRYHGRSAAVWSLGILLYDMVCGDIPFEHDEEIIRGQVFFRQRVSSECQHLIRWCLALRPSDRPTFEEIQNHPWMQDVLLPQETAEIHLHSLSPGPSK

Row | Structure (SMILES) | IC50 (PIM-1; [1]) | IC50 (PI3K (p110α/p85α); [2]) | IC50 (PI3K (p110α/p85α); [3]) | IC50 (mTOR; [4]) | IC50 (mTOR; [5]) | IC50 (PIM-1; [6])
1 | COc1ncc2cc1NS(=O)(=O)c1cccc(c1)C(=O)NCc1cncc(c1)-c1c[nH]c3ncc-2cc13 [compound 20] | > 1000 nM | < 100 nM | 80 nM | 100 to 1000 nM |  | 
2 | COc1ncc2cc1NS(=O)(=O)c1cccc(c1)C(=O)NCc1cncc(c1)-c1ncnc3sc-2cc13 [compound 21] | 100 to 1000 nM | < 100 nM | 85 nM | > 1000 nM |  | 
3 | COc1ncc2cc1NS(=O)(=O)c1cccc(c1)C(=O)NCCN1CC=C(CC1)c1cnc3ccc-2nn13 [compound 23] | > 1000 nM | < 100 nM | 5 nM | < 100 nM | 22 nM | 
4 | COc1ncc2cc1NS(=O)(=O)c1cccc(c1)C(=O)N(C)CC1CCN(CC1)c1ccnc3ccc-2cc13 [compound 24] | > 1000 nM | < 100 nM | 3 nM | < 100 nM | 4 nM | 
5 | COc1ncc2cc1NS(=O)(=O)c1cccc(c1)C(=O)NCCn1cc(cn1)-c1cnn3ccc-2nc13 [compound 26] | > 1000 nM | < 100 nM | 4 nM | < 100 nM | 40 nM | 
6 | COc1ncc2cc1NS(=O)(=O)c1cccc(c1)C(=O)NCc1cncc(c1)-c1ncnc3c1SC2=C3 [compound 27] | < 100 nM | 100 to 1000 nM |  | > 1000 nM |  | 40 nM
7 | COc1ncc2cc1NS(=O)(=O)c1cccc(c1)C(=O)NCc1cccc(c1)-c1ncnc3c1SC2=C3 [compound 28] | 100 to 1000 nM | 100 to 1000 nM |  | > 1000 nM |  | 
8 | COc1ncc2cc1NS(=O)(=O)c1cc(c(F)cc1F)C(=O)NCc1cccc(c1)-c1ccnc3ccc-2cc13 [compound 29] | > 1000 nM | < 100 nM | 6 nM | 100 to 1000 nM |  | 
9 | COc1ncc2cc1NS(=O)(=O)c1cccc(c1)C(=O)NCc1cncc(c1)-c1cnc3ccc-2cn13 [compound 30] | > 1000 nM | < 100 nM | 11 nM | < 100 nM | 49 nM | 
10 | COc1ncc2cc1NS(=O)(=O)c1cccc(c1)C(=O)NCC1CCN(CC1)c1ncnc3ccc-2cc13 [compound 32] | > 1000 nM | < 100 nM | 2 nM | < 100 nM | 5 nM | 
11 | COc1ncc2cc1NS(=O)(=O)c1cccc(c1)C(=O)NCCn1cc(cn1)-c1cnc3ccc-2cn13 [compound 34] | > 1000 nM | < 100 nM | 7.6 nM | < 100 nM | 66 nM | 
12 | COc1ncc2cc1NS(=O)(=O)c1cccc(c1)C(=O)NCc1cccc(c1)-c1ccnc3ccc-2nc13 [compound 35] | > 1000 nM | < 100 nM | 5 nM | < 100 nM | 16 nM | 
13 | COc1ncc2cc1NS(=O)(=O)c1cccc(c1)C(=O)NCCn1cc(cn1)-c1ncnc3c1SC2=C3 [compound 36] | 100 to 1000 nM | 100 to 1000 nM |  | > 1000 nM |  | 
14 | COc1ncc2cc1NS(=O)(=O)c1cccc(c1)C(=O)NCc1cccc(c1)-c1ncnc3sc-2cc13 [compound 37] | > 1000 nM | < 100 nM | 20 nM | > 1000 nM |  | 
15 | COc1ncc2cc1NS(=O)(=O)c1cccc(c1)C(=O)NCC1CCN(CC1)c1ncnc3cc-2sc13 [compound 38] | > 1000 nM | > 1000 nM |  | > 1000 nM |  | 
16 | COc1ncc2cc1NS(=O)(=O)c1cccc(c1)C(=O)NCCN1CC=C(CC1)c1cnc3ccc-2cn13 [compound 40] | > 1000 nM | < 100 nM | 3 nM | < 100 nM | 36 nM | 
17 | COc1ncc2cc1NS(=O)(=O)c1cccc(c1)C(=O)NCc1cncc(c1)-c1ncnc3ccc-2cc13 [compound 41] | > 1000 nM | < 100 nM | 3 nM | < 100 nM | 16 nM | 

Row | Structure (SMILES) | IC50 (PIM-1; [1]) | IC50 (PI3K (p110α/p85α); [2]) | IC50 (PI3K (p110α/p85α); [3]) | IC50 (mTOR; [4]) | IC50 (mTOR; [5]) | IC50 (PIM-1; [6])
18 | COc1ncc2cc1NS(=O)(=O)c1cccc(c1)C(=O)NCc1cc(ccn1)-c1ncnc3c1SC2=C3 [compound 42] | 100 to 1000 nM | 100 to 1000 nM |  | > 1000 nM |  | 
19 | O=C1NCc2cc(ccn2)-c2ncnc3c2SC(=C3)c2cncc(c2)NS(=O)(=O)c2cccc1c2 [compound 43] | < 100 nM | < 100 nM | 44 nM | > 1000 nM |  | 41 nM
20 | COc1ncc2cc1NS(=O)(=O)c1cc(c(F)cc1F)C(=O)NCc1cncc(c1)-c1ncnc3c1SC2=C3 [compound 44] | > 1000 nM | 100 to 1000 nM |  | > 1000 nM |  | 
21 | O=C1NCc2cncc(c2)-c2ncnc3c2SC(=C3)c2cnc(O)c(c2)NS(=O)(=O)c2cccc1c2 [compound 45] | 100 to 1000 nM | > 1000 nM |  | > 1000 nM |  | 
22 | COc1ncc2cc1N(C)S(=O)(=O)c1cccc(c1)C(=O)NCc1cncc(c1)-c1ncnc3c1SC2=C3 [compound 46] | > 1000 nM | > 1000 nM |  | > 1000 nM |  | 
23 | COc1ncc2cc1NS(=O)(=O)c1cccc(c1)C(=O)Nc1cncc(c1)-c1ncnc3c1SC2=C3 [compound 47] | > 1000 nM | < 100 nM | 99 nM | < 100 nM | 8.5 nM | 
24 | COc1ncc2cc1NS(=O)(=O)c1ccc(F)c(c1)C(=O)NCc1cncc(c1)-c1ncnc3c1SC2=C3 [compound 48] | < 100 nM | < 100 nM | 48 nM | > 1000 nM |  | 52 nM
25 | O=C1NCc2cncc(c2)-c2ccnc3ccc(cc23)-c2cncc(c2)NS(=O)(=O)c2cccc1c2 [compound 49] | > 1000 nM | < 100 nM | 68 nM | 100 to 1000 nM |  | 
26 | CC(C)Oc1ncc2cc1NS(=O)(=O)c1cccc(c1)C(=O)NCc1cncc(c1)-c1ncnc3c1SC2=C3 [compound 50] | > 1000 nM | > 1000 nM |  | > 1000 nM |  | 
27 | COc1ncc2cc1NS(=O)(=O)c1cccc(c1)C(=O)NCCn1cc(cn1)-c1ncnc3c1OC2=C3 [compound 51] | > 1000 nM | 100 to 1000 nM |  | > 1000 nM |  | 
28 | COc1ncc2cc1NS(=O)(=O)c1cc(ccc1F)C(=O)NCc1cncc(c1)-c1ncnc3c1SC2=C3 [compound 52] | 100 to 1000 nM | 100 to 1000 nM |  | > 1000 nM |  | 
29 | COc1ncc2cc1NS(=O)(=O)c1cc(cc(C(F)(F)F)c1)C(=O)NCc1cncc(c1)-c1ncnc3c1SC2=C3 [compound 53] | > 1000 nM | > 1000 nM |  | > 1000 nM |  | 
30 | COc1ncc2cc1NS(=O)(=O)c1cccc(c1)C(=O)NCc1cncc(c1)-c1nc(C)nc3c1SC2=C3 [compound 54] | > 1000 nM | 100 to 1000 nM |  | > 1000 nM |  | 
31 | COc1ncc2cc1NS(=O)(=O)c1cccc(c1)C(=O)NCC1=CC=C(S1)c1ncnc3c1SC2=C3 [compound 55] | < 100 nM | 100 to 1000 nM |  | > 1000 nM |  | 12 nM
32 | COc1ncc2cc1NS(=O)(=O)c1cccc(c1)C(=O)NCc1cncc(c1)-c1ncnc3c1SC2=C3C [compound 56] | < 100 nM | < 100 nM | 13 nM | 100 to 1000 nM |  | 56 nM
33 | COc1ncc2cc1NS(=O)(=O)c1cccc(c1)C(=O)NCCn1cc(cn1)-c1ncnc3c1SC2=C3C [compound 57] | 100 to 1000 nM | < 100 nM | 0.8 nM | 100 to 1000 nM |  | 
34 | O=C1NCc2cncc(c2)-c2ncnc3c2SC(=C3)c2cnc(Cl)c(c2)NS(=O)(=O)c2cccc1c2 [compound 58] | 100 to 1000 nM | < 100 nM | 3.6 nM | > 1000 nM |  | 
